Measurements from a melting point compilation (Tetko et al.; mined from patent text by program, amines drawn as free bases though some values may be those of a salt).

For `COc1ccc(Cl)cc1C1(F)C(=O)Nc2ccc(C)cc21` (stereo not drawn), the melting point was 193 to 195 °C.
Work on `COc1ncccc1Nc1c(NC(NC(=O)c2ccc(Cl)cc2)C(C)(C)C)c(=O)c1=O` (stereo not drawn) yielded a melting point of 239 to 241 °C.
For `COc1ccc2c(c1)C(=O)c1ccc(-c3nnn[nH]3)cc1S2(=O)=O`, the melting point was 253 °C.
Work on `CC(C)(C)OC(=O)N(CCOc1cccc2[nH]ccc12)Cc1ccccc1` yielded a melting point of 46 to 48 °C.
With `COc1ccccc1NC(=O)Nc1nc(Nc2ccccc2-c2ccccc2)nc(N(CC(=O)O)Cc2ccc(OC)c(OC)c2)n1` the melting point was 115 to 120 °C.
With `CS(=O)(=O)c1ccc(-n2cc(C(F)(F)F)nc2-c2ccc(-c3cscn3)cc2)cc1F` the melting point was 112 to 115 °C.
Work on `CCCCCCCCCCCCCc1c[nH]c(C(=O)OCC)c1` yielded a melting point of 59 to 60 °C.
`CN(C)CCc1c(CC(C)(C)[N+](=O)[O-])c2ccccc2n1C` gave a melting point of 87 to 90 °C.
`CSc1ccc(NC(=O)N2CC(c3ccc(C(F)(F)F)cn3)C(c3ccc(Cl)cc3)=N2)cc1` (stereo not drawn) showed a melting point of 225 to 226 °C.
For `N#CC1(O)CCN(c2ncccc2F)CC1`, the melting point was 76 to 78 °C.
In the case of `O=C(O)CCc1ccc(CO)cc1`, the melting point is reported as 124 to 126 °C.
With `O=C(CBr)Nc1cccc(OC(=O)CBr)c1` the melting point was 96 to 98 °C.
For `CCCc1c(OCCOCCOc2ccc3ccc(OCCCC(=O)O)cc3c2C(C)=O)ccc(C(C)=O)c1O`, the melting point was 71 to 75 °C.
`O=CNC1Cc2ccccc2C1` gave a melting point of 72 to 74 °C.
Work on `Cc1cn(N)c(=O)n1C` yielded a melting point of 115 to 119 °C.
With `COC(=O)C(=CN(C)C)N(C)c1nc(-c2ccc(Br)cc2)cs1` the melting point was 184 to 185 °C.
`NCc1ccc(CNc2ncc3ncnc(Nc4ccc(F)c(Cl)c4)c3n2)cc1` showed a melting point of 211 to 213 °C.
With `Cc1ccc(N2C(=O)C(O)=C(C(=O)c3ccc(-c4ccccn4)cc3)C2c2ccc(OC(F)(F)F)cc2)nn1` (stereo not drawn) the melting point was 247 to 249 °C.
`CCCCn1cc(C(=O)C(=O)O)c2cc(-c3ccc(C(F)(F)F)cc3)ccc21` gave a melting point of 149 °C.
`CCCn1ccnc1C(=O)Cc1ccc([N+](=O)[O-])cc1` showed a melting point of 95 to 96 °C.
With `CC(C)c1c(Cl)sc2[nH]c(=O)c(=O)[nH]c12` the melting point was > 250 °C.
`CCOCn1c(S(=O)(=O)C(F)(F)C(F)Cl)c(C#N)c2ccccc21` (stereo not drawn) gave a melting point of 97 to 100 °C.
`O=C1CC2CSc3ccccc3C2=NN1c1ccc(Cl)cc1` (stereo not drawn) showed a melting point of 146 to 147 °C.
For `COc1ccc(Oc2ccc(C(=O)CCC#N)cc2)cc1`, the melting point was 88 °C.
In the case of `CNC(=O)c1ccccc1Nc1nc(Nc2ccc3c(c2)CCOCC3)ncc1Cl`, the melting point is reported as 185 °C.
With `Cn1cnc2c1ccn1c(=O)c(-c3ccc(OCc4ccccc4)cc3)cc(C(=O)O)c21` the melting point was 227 to 229 °C.
For `COc1c(CN(C)C)c2c(c3c1OC(C)(C)C3)C(c1ccccc1)=NC(C)(C)C2`, the melting point was 124 to 125 °C.
Work on `CNC(=O)c1ccc(-c2ccc3cnc(Nc4ccc(N5CCC(N6CCN(C)CC6)CC5)cc4OC)nn23)cc1` yielded a melting point of 112 to 114 °C.
In the case of `CCC(O)(CC(N)=O)c1ccc(Br)cc1` (stereo not drawn), the melting point is reported as 118 to 119 °C.
Work on `O=C(O)CCCOc1cccc(CNC(=O)c2nc3ccccc3c(=O)[nH]2)c1` yielded a melting point of 259 to 260 °C.
For `N#CC(N)(N)c1cccnc1`, the melting point was 158 °C.
For `CC(=O)OC(CN1C(=O)N(C(C)=O)C2(CC(C)(C)N(C)C(C)(C)C2)C1=O)CN1C(=O)N(C(C)=O)C2(CC(C)(C)N(C)C(C)(C)C2)C1=O`, the melting point was 105 to 108 °C.
`CCOC(=O)c1ccc(C(F)(F)F)c(N(C)C(C)=O)n1` showed a melting point of 145 to 146 °C.
`CN1CCN(C2Cc3ccccc3Sc3cc(F)c(F)cc32)CC1` (stereo not drawn) gave a melting point of 106 to 108 °C.
Compound `CC(OC(C)(C)C(=O)O)c1cc(-c2ccc(Cl)cc2)no1` (single isomer, unassigned; (+)) has a melting point of 120 to 124 °C.
`COc1ccc(S(=O)(=O)C2CC(=O)NC2=O)cc1` (stereo not drawn) gave a melting point of 144 to 146 °C.
`O=C(CC(F)(F)F)NC[C@H]1CN(c2ccc3c(c2)CCCc2cnoc2-3)C(=O)O1` gave a melting point of 150 to 186 °C.
`c1ccc(CCN2CCc3[nH]c4ccc5scc(-c6ccccc6)c5c4c3C2)cc1` gave a melting point of 220 to 221 °C.
`COC(=O)c1ccc(CC(C)=O)cc1` gave a melting point of 40 to 47 °C.
Compound `COc1ccc(CONS(=O)(=O)c2ccc(C)cc2)cc1` has a melting point of 109 to 111 °C.
Compound `Nc1cccc(-c2ccc(CCNCCCCCc3ccccc3)cc2)n1` has a melting point of 60 to 70 °C.
For `CCCCCCCCCCCCOC(=O)c1ccc(Cl)c(N)c1`, the melting point was 58.3 to 59.5 °C.
Work on `Fc1cc(Br)ccc1OCc1ccccc1` yielded a melting point of 64.4 to 66.3 °C.
`NC(=O)c1c(N)oc2ccc(Cl)cc2c1=O` gave a melting point of 320 °C.
`O=C(Cn1cnnn1)N(O)CCCP(=O)(O)O` gave a melting point of 157 to 159 °C.
Work on `Cc1cc(F)cc2c(=O)c(C(=O)O)cn(CC(F)(F)F)c12` yielded a melting point of 198 to 201 °C.
`CCCCCCCCCCCCc1cc(C(=O)O)c(C)o1` showed a melting point of 70 to 73 °C.
With `O=C1N(N2CCOCC2)c2ccccc2C1(Cc1ccnc(F)c1)Cc1ccnc(F)c1` the melting point was 198 to 203 °C.
Work on `O=S(=O)(c1ccc(Cl)cc1)N1CCCC1c1ccc(F)c(Cl)c1` (racemic) yielded a melting point of 119 °C.
For `CC(C)(C)c1cc(C=Cc2ccccc2NC(=O)N(Cc2ccccc2)Cc2ccccc2)cc(C(C)(C)C)c1O`, the melting point was 175 to 178 °C.
With `O=[N+]([O-])c1cccc(OCc2ncc3ccccc3n2)c1` the melting point was 125 to 127 °C.
With `CCOC(=O)C1=C(CSCCNC=O)NC(C)=C(C(C)=O)C1c1cccc([N+](=O)[O-])c1` (stereo not drawn) the melting point was 140 to 142 °C.
In the case of `CSC(CC(=O)O)c1ccccc1` (stereo not drawn), the melting point is reported as 75 to 77 °C.
For `CC(CC(=O)O)c1ccc(-c2ccc(F)cc2F)cc1` (stereo not drawn), the melting point was 109 to 110 °C.
Work on `CCOP(=O)(Cc1ccc(NC(=O)[C@H]2Cc3cc(OC)c(OC)cc3C(=O)CS2)cc1)OCC` yielded a melting point of 96 to 98 °C.
Compound `O=C(Nc1ccc(-n2nc(C(F)(F)F)cc2C(F)(F)F)cc1)c1ccc(Cl)cc1F` has a melting point of 156 to 158 °C.
Compound `CCn1ncnc1COc1nc2c(cc1C(C)(C)C)nnn2-c1cc(F)ccc1F` has a melting point of 148 to 150 °C.
`CC(c1oc2ccccc2c(=O)c1-c1cccc(F)c1)n1nc(-c2ccc(O)c(O)c2)c2c(N)ncnc21` (stereo not drawn) gave a melting point of 193 to 195 °C.
Compound `CN(Cc1cccc2c1CN(C1CCC(=O)NC1=O)C2=O)C(=O)NC1CCCCC1` (stereo not drawn) has a melting point of 219 to 221 °C.
Work on `Cn1c(=O)oc(=O)c2ccc(F)cc21` yielded a melting point of 158 to 160 °C.
`CC(=O)NC1(c2ccc(CCl)cc2)CC1` showed a melting point of 124 to 127 °C.
With `CC#Cc1cn(C2OC(CO)C(O)C2O)c(=O)[nH]c1=O` (stereo not drawn) the melting point was 225 to 227 °C.
For `O=C1C=CC=C2C=CC=C12`, the melting point was 70 to 71 °C.
In the case of `Brc1ccc2nc(N3CCOCC3)nn2c1`, the melting point is reported as 136 °C.
For `CNS(=O)(=O)c1cscc1CCl`, the melting point was 75 to 76 °C.
For `O=c1nc(-c2ccccn2)sc2ccc(O)cc12`, the melting point was 313 to 315 °C.
Compound `Cc1ncn(-c2nc(-c3ccc(Cl)cc3)c(CCC(=O)O)o2)c1C` has a melting point of 225 to 226 °C.
`COc1ccc(-c2[nH]nc3c2CCc2ccccc2-3)cc1` showed a melting point of 161 to 163 °C.
`CCc1nn(CCO)c(CC)c1Oc1cc(F)cc(-n2cccn2)c1` showed a melting point of 120 to 122 °C.
`CN(CC(O)c1ccc(Cl)c(Cl)c1)C(=O)OC(C)(C)C` (stereo not drawn) gave a melting point of 88 °C.
`CCCCCS(=O)(=O)NC(=O)/C=C/c1cc(OC2CCOCC2)nn1Cc1ccc(Cl)cc1Cl` showed a melting point of 154 to 157 °C.
`CS(=O)(=O)NCCCC1COCc2nc3c(N)nc4c(c3n21)CCCC4` (stereo not drawn) gave a melting point of 197 to 200 °C.
With `CC(C)(C)OC(=O)Nc1scc(C2CC2)c1C(=O)O` the melting point was 175 to 176 °C.
